Columns and labels:
[1] = tested on: human leukemia HL-60 cell line; design: method as in PMID 21067217; settings: 72 h treatment; cited from earlier work
[2] = tested on: UDP-glucuronosyltransferases; settings: in vitro metabolism; cited from earlier work
[3] = tested on: MDA-MB-231 cells; test: Annexin V-FITC/PI apoptosis assay (flow cytometry); assay type: cell-based, human; settings: mean ± SD
Protocol: (§1) Cells (10^6 cells/well) were seeded onto 6-well plates. After 24 h, the cells were incubated with A-1 (0.1 and 1 µM) for 24, 48, and 72 h. The control groups were incubated with 0.01% DMSO (ATCC; Manassas, VA, USA) for every hour. Then, cells were collected and washed twice with cold 1X PBS and stained with both annexin V-FITC and PI for 5 min at room temperature. The cells were analyzed by flow cytometry using BD FACS Aria (BD Biosciences, Franklin Lakes, NJ, USA). The positive controls (annexin negative/PI negative; annexin negative/PI positive; and annexin positive/PI negative) were used to set up compensation and set quadrants. The early apoptotic cells were measured in the quadrant of annexin V positive/PI negative and late apoptotic/necrotic cells were measured in the quadrant of annexin positive/PI positive. Data were analyzed with FlowJo™ v10.8 Software (BD Life Sciences; Ashland, OR, USA). All experiments were performed in triplicates.

[4] = tested on: MDA-MB-436 cells; test: Annexin V-FITC/PI apoptosis assay (flow cytometry); assay type: cell-based, human; settings: mean ± SD
Protocol: as §1

[5] = tested on: MCF-10A cells; test: RealTime-Glo MT cell viability (cytotoxicity) assay; assay type: cell-based, human; settings: 1 µM, 24, 48, 72 h
Protocol: The cytotoxicity of RES, A-1, and A-3 was measured using the RealTime-Glo^TM MT Cell Viability Assay (Promega, Madison, WI, USA). The cells (10,000 cells/well) were seeded into 96-well plates. After 24 h, they were treated with various 10-fold dilutions of RES, A-1, and A-3 with concentrations ranging from 0.1 µM to 1000 µM. Cells with 0.1% DMSO (ATCC; Manassas, VA, USA) were included as a control. Luminescence was measured every 12 h for 72 total hours in a Cytation^TM 5 (BioTek, Winooski, VT, USA) plate reader. All experiments were performed in triplicates.

[6] = tested on: peripheral blood mononuclear cells (PBMCs); design: method as in PMID 21067217; settings: cited from earlier work
[7] = tested on: caspase-3/7 activity in MDA-MB-436 cells; test: Apo-ONE Homogenous Caspase-3/7 Assay; assay type: cell-based, human; settings: 0.1, 1, 10 µM, 48 h
Protocol: (§2) The Apo-ONE® Homogenous Caspase-3/7 Assay (Promega, Madison, WI, USA) was used for measuring caspase-3/7 activity. Cells (10,000 cells/well) were seeded in 96-well plates. After 24 h, the cells were treated with A-1, A-3, and RES, and incubated for an additional 48 h at 37 °C, with a humidified atmosphere of 5% CO2 (however, MDA-MB-436 cells were incubated in 0% CO2). Control groups were cells treated with 0.01% DMSO (ATCC; Manassas, VA, USA). According to the manufacturer, after 48 h of treatment, the caspase reagent was added to the cells and the plates were incubated at room temperature in the dark for 1 h. Then, fluorescence was measured every hour for a total of 4 h using the Cytation^TM 5 (BioTek; Winooski, VT, USA) plate reader at an excitation wavelength of 485 ± 20 nm and emission of 530 ± 25 nm.

[8] = tested on: caspase-3/7 activity in MDA-MB-231 cells; test: Apo-ONE Homogenous Caspase-3/7 Assay; assay type: cell-based, human; settings: 0.1, 1, 10 µM, 48 h
Protocol: as §2

CC(C)/C=C/c1c(O)cc(/C=C/c2ccc(O)c(O)c2)cc1O [A-1, arachidin-1]
IC50 [1]: 4.2 µM | glucuronidated products compared to non-prenylated analogs piceatannol and RES [2]: lower glucuronidated products | percentage of cells in early apoptosis ([3]; 0.1 µM, 24 h): 21.29 ± 1.94% | percentage of cells in early apoptosis ([3]; 0.1 µM, 48 h): 63.47 ± 0.90% | percentage of cells in early apoptosis ([3]; 0.1 µM, 72 h): 53.1 ± 2.50% | percentage of cells in early apoptosis ([3]; 1 µM, 24 h): 24.76 ± 1.65% | percentage of cells in early apoptosis ([3]; 1 µM, 48 h): 68.67 ± 0.76% | percentage of cells in early apoptosis ([3]; 1 µM, 72 h): 51.77 ± 2.37% | percentage of early apoptotic cells ([4]; 0.1 µM, 24 h): 35.76 ± 4.10% | percentage of early apoptotic cells ([4]; 0.1 µM, 48 h): 44.90 ± 0.89% | percentage of early apoptotic cells ([4]; 0.1 µM, 72 h): 45.73 ± 0.96% | percentage of early apoptotic cells ([4]; 1 µM, 24 h): 35.27 ± 3.78% | percentage of early apoptotic cells ([4]; 1 µM, 48 h): 46.11 ± 3.40% | percentage of early apoptotic cells ([4]; 1 µM, 72 h): 38.77 ± 2.59% | cytotoxicity in non-cancerous epithelial cells [5]: did not show any statistically significant cytotoxicity | cytotoxic effects on PBMCs [6]: no cytotoxic effects | caspase-3/7 activity vs control [7]: significant increase of dose-dependent caspase-3/7 activities | caspase-3/7 activity vs control [8]: significant increase of dose-dependent caspase-3/7 activities

— paper PMC8835363, “Arachidin-1, a Prenylated Stilbenoid from Peanut, Induces Apoptosis in Triple-Negative Breast Cancer Cells” (International Journal of Molecular Sciences, 2022)
